Data on 8 compounds can be found in US20220370464A1, “COMPOSITIONS AND METHODS OF TREATING OR PREVENTING OCULAR INFECTIONS WITH FILOCICLOVIR” (Microbiotix, Inc., priority 2019, published 2022).

Molecules are shown by their SMILES. Read-outs that look alike come from different tables or passages of the source.

The test system of data set [1] is human foreskin fibroblast (HFF) cells. The experiment in a line: Cytotoxicity, CellTiter-Glo cell viability in HFF cells. The protocol: (§1) Human foreskin tissue was obtained from the University of Alabama at Birmingham tissue procurement facility with approval from the Institutional Review Board. The tissue was stored at 4° C. in cell culture medium consisting of minimum essential media (MEM) with Earle's salts supplemented with 10% fetal bovine serum (FBS; HyClone, Inc., Logan, Utah) and standard concentration of L-glutamine, amphotericin B (Fungizone), and vancomycin. The tissue was then placed in a phosphate-buffered saline solution, minced, and rinsed to remove the red blood cells. Tissue fragments were then resuspended in a trypsin-EDTA solution and incubated at 37° C. to disperse the cells, which were then collected by centrifugation. Cell pellets were then resuspended in 4 ml culture medium, placed in a 25-cm^2 tissue culture flask, and incubated at 37° C. for 24 h. The culture medium was then replaced with fresh medium and condition of the cells was monitored daily until a confluent cell monolayer was formed. The HFF cells were then expanded through serial passages in standard growth medium of MEM with Earle's salts supplemented with 10% FBS, L-glutamine, penicillin, and gentamicin. Each lot of cells was confirmed to be free of mycoplasma infection and routinely passaged or used for assays at or before passage 10.
(§2) Antiviral and cytotoxicity data were obtained in a series of three to five separate experiments for each virus to provide an accurate estimate of antiviral activity and statistical data. Each assay included positive and negative control compounds as well as infected and uninfected controls to ensure the integrity of the experiment.
(§3) The CPE reduction assays were performed in monolayers of human foreskin fibroblast (HFF) cells (5000/well) in 384-well plates in assay media consisting of MEM with Earle's salts, 2% FBS and standard concentrations of L-glutamine, penicillin and gentamycin. 5000 cells were seeded in 384-well microtiter plates and incubated at 37° C. in a humidified 5% CO2 incubator for 24 hours to allow for formation of confluent monolayers.
(§4) Cell monolayers were infected at a multiplicity of infection (MOI) of approximately 0.005 PFU/cell with virus strains including AdV5. […] Cytopathology was determined by the addition of CellTiter-Glo® reagent (Promega, Madison, Wis.).

The next data set relates to Adenovirus 5 (AdV5). The data set can be described thus: Cytopathic effects (CPE) reduction assay, AdV5 in HFF cells, 384-well. It counts as cell-based, human adenovirus 5 (AdV5). To be noted: for EC50: AdV 384 Well CPE, HFF cells, average and SD from five independent experiments. Background: Cytopathic effects are the visible damage that an infection or toxin causes in cultured cells.

Data set [2] in a line: Cytotoxicity, CellTiter-Glo cell viability in HFF cells. The following applies: human, human foreskin fibroblast (HFF) cells. The protocol: as §1, §2, §3, §4
In general terms: ATP-based viability assays read luminescence as a measure of living cells.

The subject of another data set is ocular AdV infections. To be noted: topical, literature; cited from earlier work.
[3] abbreviates: HFF cells, 384-well, average and SD from five independent experiments.

Procedure for Adenovirus 5 (AdV5): Cell monolayers were infected at a multiplicity of infection (MOI) of approximately 0.005 PFU/cell with virus strains including AdV5. […] Cytopathology was determined by the addition of CellTiter-Glo® reagent (Promega, Madison, Wis.). Concentrations of antiviral test compounds sufficient to reduce CPE by 50% (EC50) were interpolated from the experimental data using standard methods in Microsoft® Excel.

`O=c1[nH]c(=S)c(I)cn1[C@H]1C[C@H](O)[C@@H](CO)O1` [4-thio-IDU, 4-thioidoxuridine]: it took 26 ± 24 µM to reach half-maximal cytotoxicity in data set [1] (setting [3]) (CC50). Further, the midpoint of the response in the data set on Adenovirus 5 (AdV5) (Human mastadenovirus C), the EC50, lay at 11 ± 9.4 µM.

As for `Nc1nc2c(ncn2COCCO)c(=O)[nH]1` [ACV, acyclovir], the cytotoxic concentration (CC50) in data set [2] is above 100 µM.

Take `OC[C@H]1O[C@@H](n2c(Br)nc3cc(Cl)c(Cl)cc32)[C@H](O)[C@@H]1O` [BDCRB, bromodichlororibobenzimidazole]: in data set [1] (setting [3]), the CC50 turned out to be 91 ± 13 µM. The same compound yielded an EC50 in the data set on Adenovirus 5 (AdV5) of 70 ± 39 µM. Turning to `O=c1[nH]c(=O)n([C@@H]2O[C@H](CO)[C@@H](O)[C@@H]2F)cc1I` [FIAU], in data set [1], the CC50 was above 100 µM. Besides, in the data set on Adenovirus 5 (AdV5), the EC50 is above 100 µM. In turn, `Nc1nc(O)c2ncn(COC(CO)CO)c2n1` [GCV, ganciclovir] came in with a CC50 in data set [2] above 100 µM. Further, in the data set with Adenovirus 5 (AdV5) (human, adenovirus 5, HFF cells, read-out: SI (selective index, CC50/EC50)), the selectivity ratio is at least 1.5. Besides, in the data set with ocular AdV infections, the “efficacy in the treatment of AdV conjunctivitis in clinical trials” value was “lacks efficacy”. Turning to `O=c1[nH]c(=O)n([C@@H]2CO[C@H](CO)O2)cc1/C=C/Br` [L-BHDU, L-Bromovinyl-Hydroxymethyl-Dioxolan Uracil], the CC50 in data set [1] is above 100 µM. In the data set on Adenovirus 5 (AdV5), this compound came in with a 50% effective concentration (EC50) above 100 µM. `Cc1cn([C@H]2C[C@H](O)[C@]3(CO)C[C@H]23)c(=O)[nH]c1=O` [N-MCT, N-methanocarbathymidine] came in with a CC50 in data set [1] (setting [3]) of 72 ± 33 µM. In the data set on Adenovirus 5 (AdV5), this compound yielded an EC50 of 57 ± 47 µM. The compound `Nc1ncnc2c1ncn2CCOCP(=O)(O)O` [PMEA, adefovir] showed a CC50 in data set [1] (setting [3]) above 100 µM.

The term CC50 denotes the concentration at which the toxic effect on the cells reaches its halfway point. Higher therefore signals lower toxicity to the cells. The term EC50 denotes the concentration giving half of the maximal effect.
